Test results taken from patent US20160158200A1, “Combinations of Hepatitis C Virus Inhibitors” (priority 2013, published 2016).

tested on: HCV genotype-1a variant with glutamine 30 changed to glutamate in the NS5A protein; format: cell-based; conditions: test compound titrated with BMS-790052 fixed at 200 nM; genotype 1a Q30E replicon
Summary of the method: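 Synergy was assessed by combining several fixed amounts of an NS5A-targeting compound with a titration of the second compound of interest.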

| SMILES | Fold-Synergistic 1a (Q30E) [fold] |
| --- | --- |
| COC(C)(COCc1ccccc1)C(=O)N[C@H](c1nc(-c2ccc(-c3ccc(-c4c[nH]c([C@@H](NC(=O)C(C)(COCc5ccccc5)OC)C(C)(C)C)n4)cc3)cc2)c[nH]1)C(C)(C)C.O=C(O)C(F)(F)F.O=C(O)C(F)(F)F (single isomer, unassigned) [Compound W-232] | >100 |
| COC(C)(CO)C(=O)N[C@H](c1nc(-c2ccc(-c3ccc(-c4c[nH]c([C@@H](NC(=O)C(C)(CO)OC)C(C)(C)C)n4)cc3)cc2)c[nH]1)C(C)(C)C (single isomer, unassigned) [Compound W-234] | >10 |
| COC(C)(CO)C(=O)N[C@H](c1nc(-c2ccc(-c3ccc(-c4c[nH]c([C@@H](NC(=O)C(C)(CO)OC)C(C)(C)C)n4)cc3)cc2)c[nH]1)C(C)(C)C (single isomer, unassigned) [Compound W-237] | >100 |
| COC(C)(CCOCc1ccccc1)C(=O)N[C@H](c1nc(-c2ccc(-c3ccc(-c4c[nH]c([C@@H](NC(=O)C(C)(CCOCc5ccccc5)OC)C(C)(C)C)n4)cc3)cc2)c[nH]1)C(C)(C)C (single isomer, unassigned) [Compound W-256b] | >100 |
| COC(C)(CCO)C(=O)N[C@H](c1nc(-c2ccc(-c3ccc(-c4c[nH]c([C@@H](NC(=O)C(C)(CCO)OC)C(C)(C)C)n4)cc3)cc2)c[nH]1)C(C)(C)C (single isomer, unassigned) [Compound W-257] | >100 |
| COC(C)(CCO)C(=O)N[C@H](c1nc(-c2ccc(-c3ccc(-c4c[nH]c([C@@H](NC(=O)C(C)(CCO)OC)C(C)(C)C)n4)cc3)cc2)c[nH]1)C(C)(C)C (single isomer, unassigned) [Compound W-258] | >100 |
| COC(C)(CCO)C(=O)N[C@H](c1nc(-c2ccc(-c3ccc(-c4c[nH]c([C@@H](NC(=O)C(C)(CCO)OC)C(C)(C)C)n4)cc3)cc2)c[nH]1)C(C)(C)C (single isomer, unassigned) [Compound W-259] | >100 |
| CC(COCc1ccccc1)(OCCF)C(=O)N[C@H](c1nc(-c2ccc(-c3ccc(-c4c[nH]c([C@@H](NC(=O)C(C)(COCc5ccccc5)OCCF)C(C)(C)C)n4)cc3)cc2)c[nH]1)C(C)(C)C (single isomer, unassigned) [Compound W-261b] | >100 |
| CC(CO)(OCCF)C(=O)N[C@H](c1nc(-c2ccc(-c3ccc(-c4c[nH]c([C@@H](NC(=O)C(C)(CO)OCCF)C(C)(C)C)n4)cc3)cc2)c[nH]1)C(C)(C)C (single isomer, unassigned) [Compound W-270] | >100 |
| CC(CO)(OCCF)C(=O)N[C@H](c1nc(-c2ccc(-c3ccc(-c4c[nH]c([C@@H](NC(=O)C(C)(CO)OCCF)C(C)(C)C)n4)cc3)cc2)c[nH]1)C(C)(C)C (single isomer, unassigned) [Compound W-271] | >100 |
| CC(C)[C@H](NC(=O)C1CCCCO1)c1ncc(-c2ccc(-c3ccc(-c4cnc([C@@H](NC(=O)C5CCCCO5)C(C)C)[nH]4)cc3)cc2)[nH]1 (single isomer, unassigned) [Compound Y-55] | >10 |
| CC(C)[C@H](NC(=O)C1CCCCO1)c1ncc(-c2ccc(-c3ccc(-c4cnc([C@@H](NC(=O)C5CCCCO5)C(C)C)[nH]4)cc3)cc2)[nH]1 (single isomer, unassigned) [Compound Y-57] | >100 |
| CC(C)[C@H](N[S+]([O-])C(C)(C)C)c1ncc(-c2ccc(-c3ccc(-c4cnc([C@@H](N[S+]([O-])C(C)(C)C)C(C)C)[nH]4)cc3)cc2)[nH]1 (single isomer, unassigned) [Compound Y-59] | >100 |
| CC1(C(=O)NC(c2nc(-c3ccc(-c4ccc(-c5c[nH]c(C(NC(=O)C6(C)CCC(F)(F)CO6)C(C)(C)C)n5)cc4)cc3)c[nH]2)C(C)(C)C)CCC(F)(F)CO1 (single isomer, unassigned) [Compound Y-67B] | >100 |
| CC1(C(=O)N[C@H](c2nc(-c3ccc(-c4ccc(-c5c[nH]c([C@@H](NC(=O)C6(C)CCCCC6O)C(C)(C)C)n5)cc4)cc3)c[nH]2)C(C)(C)C)CCCCC1O (single isomer, unassigned) [Compound Y-93] | >100 |
| CC1(C(=O)N[C@H](c2nc(-c3ccc(-c4ccc(-c5c[nH]c([C@@H](NC(=O)C6(C)CCCCC6O)C(C)(C)C)n5)cc4)cc3)c[nH]2)C(C)(C)C)CCCCC1O (single isomer, unassigned) [Compound Y-94] | >100 |
| CC(C)(C)[C@H](NC(=O)C1CC12CCC(F)(F)CC2)c1nc(-c2ccc(-c3ccc(-c4c[nH]c([C@@H](NC(=O)C5CC56CCC(F)(F)CC6)C(C)(C)C)n4)cc3)cc2)c[nH]1 (single isomer, unassigned) [Compound Y-95] | >100 |
| CC1(C(=O)N[C@H](c2nc(-c3ccc(-c4ccc(-c5c[nH]c([C@@H](NC(=O)C6(C)CCCCC6O)C(C)(C)C)n5)cc4)cc3)c[nH]2)C(C)(C)C)CCCCC1O (single isomer, unassigned) [Compound Y-104] | >100 |

| SMILES | Fold-Synergistic 1a (Q30E) [fold] |
| --- | --- |
| CC1(C(=O)N[C@H](c2nc(-c3ccc(-c4ccc(-c5c[nH]c([C@@H](NC(=O)C6(C)CCCCC6O)C(C)(C)C)n5)cc4)cc3)c[nH]2)C(C)(C)C)CCCCC1O (single isomer, unassigned) [Compound Y-105] | >100 |
| CC1(C(=O)N[C@H](c2nc(-c3ccc(-c4ccc(-c5c[nH]c([C@@H](NC(=O)C6(C)CCCCC6O)C(C)(C)C)n5)cc4)cc3)c[nH]2)C(C)(C)C)CCCCC1O (single isomer, unassigned) [Compound Y-106] | >100 |
| CC1(C)C2CCC(C(=O)N[C@H](c3nc(-c4ccc(-c5ccc(-c6c[nH]c([C@@H](NC(=O)C78CCC(C7)C(C)(C)C8O)C(C)(C)C)n6)cc5)cc4)c[nH]3)C(C)(C)C)(C2)C1O (single isomer, unassigned) [Compound Y-107] | >100 |
| CC(C)(C)[C@H](NC(=O)C1(CO)CCCO1)c1nc(-c2ccc(-c3ccc(-c4c[nH]c([C@@H](NC(=O)C5(CO)CCCO5)C(C)(C)C)n4)cc3)cc2)c[nH]1 (single isomer, unassigned) [Compound Y-110] | >100 |
| CC(C)(C)[C@H](NC(=O)C1(CO)CCCO1)c1nc(-c2ccc(-c3ccc(-c4c[nH]c([C@@H](NC(=O)C5(CO)CCCO5)C(C)(C)C)n4)cc3)cc2)c[nH]1 (single isomer, unassigned) [Compound Y-111] | >100 |
| CC(C)(C)[C@H](NC(=O)C1(CO)CCCO1)c1nc(-c2ccc(-c3ccc(-c4c[nH]c([C@@H](NC(=O)C5(CO)CCCO5)C(C)(C)C)n4)cc3)cc2)c[nH]1 (single isomer, unassigned) [Compound Y-112] | >100 |
| CC(C)[C@H](NC(=O)C12CCC(C1)C(C)(C)C2O)c1nc(-c2ccc(-c3ccc(-c4c[nH]c([C@@H](NC(=O)C56CCC(C5)C(C)(C)C6O)C(C)C)n4)cc3)cc2)c[nH]1 (single isomer, unassigned) [Compound Y-113] | >100 |
| CC(C)[C@H](NC(=O)C12CCC(C1)C(C)(C)C2O)c1nc(-c2ccc(-c3ccc(-c4c[nH]c([C@@H](NC(=O)C56CCC(C5)C(C)(C)C6O)C(C)C)n4)cc3)cc2)c[nH]1 (single isomer, unassigned) [Compound Y-114] | >100 |
| CC(C)[C@H](NC(=O)C12CCC(C1)C(C)(C)C2O)c1nc(-c2ccc(-c3ccc(-c4c[nH]c([C@@H](NC(=O)C56CCC(C5)C(C)(C)C6O)C(C)C)n4)cc3)cc2)c[nH]1 (single isomer, unassigned) [Compound Y-115] | >100 |
| CC1(C)C2CCC(C(=O)N[C@H](c3nc(-c4ccc(-c5ccc(-c6c[nH]c([C@@H](NC(=O)C78CCC(C7)C(C)(C)C8O)C7(C)CC7)n6)cc5)cc4)c[nH]3)C3(C)CC3)(C2)C1O (single isomer, unassigned) [Compound Y-117] | >100 |
| CC1(C)C2CCC(C(=O)N[C@H](c3nc(-c4ccc(-c5ccc(-c6c[nH]c([C@@H](NC(=O)C78CCC(C7)C(C)(C)C8O)C7(C)CC7)n6)cc5)cc4)c[nH]3)C3(C)CC3)(C2)C1O (single isomer, unassigned) [Compound Y-118] | >100 |
| CC1(C)C2CCC(C(=O)N[C@H](c3nc(-c4ccc(-c5ccc(-c6c[nH]c([C@@H](NC(=O)C78CCC(C7)C(C)(C)C8O)C7(C)CC7)n6)cc5)cc4)c[nH]3)C3(C)CC3)(C2)C1O (single isomer, unassigned) [Compound Y-119] | >100 |
| CC(C)(C)[C@H](NC(=O)C1CCC(F)(F)CC1)c1ncc(C#Cc2ccc3cc(-c4cnc([C@@H](NC(=O)C5CCC(F)(F)CC5)C(C)(C)C)[nH]4)ccc3c2)[nH]1 [Compound B1] | >100 |
| CC(C)(C)C(=O)N[C@H](c1ncc(C#Cc2ccc3cc(-c4cnc([C@@H](NC(=O)C(C)(C)C)C(C)(C)C)[nH]4)ccc3c2)[nH]1)C(C)(C)C [Compound B2] | >100 |
| CC(C)(C)[C@H](NC(=O)c1cccc(Cl)c1)c1ncc(C#Cc2ccc3cc(-c4cnc([C@@H](NC(=O)c5cccc(Cl)c5)C(C)(C)C)[nH]4)ccc3c2)[nH]1 [Compound B3] | >100 |
| CC(C)(C)[C@H](NC(=O)C(C)(C)C1(O)CCC(F)(F)CC1)c1ncc(C#Cc2ccc3cc(-c4cnc([C@@H](NC(=O)C(C)(C)C5(O)CCC(F)(F)CC5)C(C)(C)C)[nH]4)ccc3c2)[nH]1 [Compound B5A] | >100 |
| CC(C)(C)[C@H](NC(=O)C1(C2(O)CCC(F)(F)CC2)CC1)c1ncc(C#Cc2ccc3cc(-c4cnc([C@@H](NC(=O)C5(C6(O)CCC(F)(F)CC6)CC5)C(C)(C)C)[nH]4)ccc3c2)[nH]1 [Compound B5B] | >100 |
| COC(=O)N(C)C1(C(=O)N[C@H](c2ncc(C#Cc3ccc4cc(-c5cnc([C@@H](NC(=O)C6(N(C)C(=O)OC)CC6)C(C)(C)C)[nH]5)ccc4c3)[nH]2)C(C)(C)C)CC1 [Compound B5] | >100 |
